Data taken from patent publication US9522910B2, “Protein kinase inhibitors (variants), use thereof in treating oncological diseases and a pharmaceutical composition based thereon” (Obshchestvo s ogranichennoy otvetstvennostyou “Fusion …, priority 2011, dated 2016).
pIC50: −log10 of the molar value. One block for each compound: values may come before it.

Legend:
Abl = Abl (Homo sapiens (Human), UniProt P00519); assay: Kinase inhibition assay (33P transfer to plate-bound substrate), Abl; assay type: biochemical; settings: compound concentration that causes 2-times reduction of kinase enzymatic activity
Description: (§1) Kinases as either kinase domain or full construct fused to glutathione S-transferase (GST) or poly-Histidine tagged fusion proteins were expressed in baculovrius-infected insect cells (e.g. Sf21) or in E. Coli. They are purified to near homogeneity by affinity chromatography as previously described (Lehr et al., Production, purification and characterization of non-myristylated human T-cell protein tyrosine kinase in a baculovirus expression system, Gene, 1996; 169(2), 275-279; Gish et al., Bacterial expression, purification and preliminary kinetic description of the kinase domain of v-fps, Protein Eng. 8, 6, 609-614). In some instances, kinases are co-expressed or mixed with purified or partially purified regulatory polypeptides prior to measurement of activity.
(§2) Kinase activity and inhibition was measured by established protocols (see e.g. Braunwalder et al., A Solid-Phase Assay for the Determination of Protein Tyrosine Kinase Activity of c-src Using Scintillating Microtitration Plates, Anal Biochem. 234, 1, 23-26). In such cases, the transfer of ^33PO4 from ATP to the synthetic substrates poly(Glu, Tyr) 4:1 or poly(Arg, Ser) 3:1 attached to the bioactive surface of microtiter plates is taken as a measure of enzyme activity. After an incubation period, the amount of phosphate transferred is measured by first washing the plate with 0.5% phosphoric acid, adding liquid scintillant, and then counting in a liquid scintillation detector. The IC50 is determined by the concentration of compound that causes a 50% reduction in the amount of ^33P incorporated onto the substrate bound to the plate.

Abl (T315I) = Abl (T315I) (Homo sapiens (Human), UniProt P00519, T315I); assay: Kinase inhibition assay (33P transfer to plate-bound substrate), Abl (T315I); assay type: biochemical; settings: compound concentration that causes 2-times reduction of kinase enzymatic activity
Description: as §1, §2

[1] = test system: K562 human chronic myelogenous leukemia cells; assay: Antiproliferative activity on K562 cells (MTT); assay type: cell-based; settings: K562, 72 h, compound concentration that causes 2-times reduction of viable cells, 3 days
Description: Moreover, antiproliferative activity of the compounds of the present invention can be studied on K562 human chronic myelogenous leukemia cells.
Human myelogenous leukemia K562 cells K562 were cultivated in RPMI 1640 growth medium. K562 cells were transferred to 96-well plated in duplicated (final concentration 2×10^4 cells/ml) and testing compound solution in growth medium was added at different concentrations (final volume is 100 μl per well). Solid compounds were first dissolved in DMSO, then the solution was diluted with DMSO to necessary concentration, mixed with equal volume of growth medium and was transferred to cell plates. The final compound concentrations of compounds was 0.5 nM to 10 μM. DMSO at same percentage is used as control. After compound was incubated with cells for 3 days, the numbers of active cells are measured. It was achieved by removing old medium, addition of 100 μl of fresh medium and 20 μl MIT solution containing 5 mg/ml PBS. Plates was incubated for 2 h at 37° C., then 100 μl DMSO was added at each well and stirred for 1 min. Then the absorbance was measured at 570 nm and percent of proliferation inhibition related to the control (without testing compounds) was determined.

[2] = in vivo; cited from earlier work
[3] = test system: Ba/F3 cells expressing either native or mutant (T315I) Bcr-Abl kinase; assay: Animal model of chronic myelogenous leukemia (Ba/F3 Bcr-Abl tumors in nude balb/c mice); assay type: in vivo, mouse; settings: 30 mg/kg, oral gavage once daily, 10 days; ratio of mean tumor volume in therapeutic and control groups
Description: Ba/F3 cells expressing either native or mutant (T315I) Bcr-Abl kinase, were inoculated in the right flank of nude balb/c mouse (100 μl of cell suspension in serum-free medium, 3×10^6 cells/ml). Mice were randomly assigned to the groups upon tumor volume of ˜500 mm^3. Once daily vehicle (0.5% methylcellulose I in water) was given using oral gavage to the control group, and substance suspension was given to therapeutic group during 10 days. In a typical experiment malignant cells (e.g., K562 cells, or Ba/F3 cells, expressing native of mutated Bcr-Abl kinase) are injected to mouse with reduced immunity (e.g. nude or SCID mice). Tumor volume (mm^3) was calculated as follows: V=L×W^2×0.5, where L—tumor length in mm, W—width in mm. Ratio of the mean tumor volume in therapeutic and control groups (% T/C) was used to evaluate efficacy of tumor growth inhibition. Obtained data was subjected to statistical reliability Dunnet test. Efficacies of tested compounds in 30 mg/kg dose are depicted in Table 2.

MV4-11 cells = assay: Animal model of acute myelogenous leukemia (MV4-11 tumors in SCID mice); assay type: in vivo, mouse; settings: 30 mg/kg; end of the therapy (20 days); ratio of mean tumor volume in therapeutic and control groups
Description: MV4-11 cells (1×10^7 in serum-free medium) were subcutaneously injected in right flank of SCID female mice. When tumor volume achieved ˜200 mm^3 mice were separated into two groups: control and therapeutic. Control group mice received 0.3 ml of 0.5% methylcellulose solution, therapeutic group received 0.3 ml of 0.5% methylcellulose with suspended therapeutic compound. Tumor volume (mm^3) was calculated as follows: V=L×W^2×0.5, where L—tumor length in mm, W—width in mm. Ratio of the mean tumor volume in therapeutic and control groups (% T/C) on the end of the therapy (20 days) was used to evaluate efficacy of tumor growth inhibition. Obtained data was subjected to statistical reliability Dunnet test. Efficacies of tested compounds in 30 mg/kg dose are depicted in Table 3.

HCT116 cells = assay: Animal model of solid intestine tumors (HCT116 tumors in SCID mice); assay type: in vivo, mouse; settings: 30 mg/kg; end of the therapy (20 days); ratio of mean tumor volume in therapeutic and control groups
Description: 200 μl of HCT116 cells (2.5×10^7 cells/ml) were subcutaneously injected in right flank of SCID mice. When tumor volume achieved ˜200 mm^3 mice were randomized and separated into two groups: control and therapeutic. Control group mice received 0.3 ml of 0.5% methylcellulose solution, therapeutic group received 0.5% methylcellulose with suspended therapeutic compound (30 mg/kg). Twice a week animals animal weight, toxic effects and tumor volume were measured. Experiment was stopped upon tumor reached volume of 1200 mm3 of when animal lost 10% of body weight, or 20% of body weight upon 2 consecutive weightings. Ratio of the mean tumor volume in therapeutic and control groups (% T/C) was used to evaluate efficacy of tumor growth inhibition upon the end of the therapy (20 days). Obtained data was subjected to statistical reliability Dunnet test. Efficacies of tested compounds in 30 mg/kg dose are depicted in Table 4.

A549 cells = assay: Animal model of non-small cell lung cancer (A549 tumors in nude mice); assay type: in vivo, mouse; settings: 30 mg/kg, oral gavage; end of the therapy (20 days); ratio of mean tumor volume in therapeutic and control groups
Description: Male nude mice were used for this experiment. A549 cells (1×10^7) in 0.2 ml of Matrigel (BD Pharmingen) solution were injected in left mice leg upon ketamine-xylazine anesthesia. After a week of cell inoculation mice were separated into control and therapeutic groups. Control group mice received 0.3 ml of 0.5% methylcellulose solution, therapeutic group received 0.3 ml of 0.5% methylcellulose with suspended therapeutic compound (30 mg/kg). Tumor volume (mm^3) was calculated as follows: V=L×W^2×0.5. Compounds were administered using oral gavage. Treatment continued for 20 days. Ratio of the mean tumor volume in therapeutic and control groups (% T/C) was used to evaluate efficacy of tumor growth inhibition upon the end of the therapy (20 days). Obtained data was subjected to statistical reliability Dunnet test. Efficacies of tested compounds in 30 mg/kg dose are depicted in Table 5.

pIC50 (Abl): > 7.70 | pIC50 (Abl (T315I)): > 7.70 | pIC50 [1]: > 7.00
SMILES: Cc1ccc(C(=O)Nc2ccc(CN3CCN(C)CC3)c(C(F)(F)F)c2)cc1C#Cc1nnc2cc(C(=O)O)ccn12

pIC50 (Abl): > 7.70 | pIC50 (Abl (T315I)): > 7.70 | pIC50 [1]: > 7.00
SMILES: Cc1ccc(C(=O)Nc2ccc(CN3CCN(C)CC3)c(C(F)(F)F)c2)cc1C#Cc1nnc2cc(C(N)=O)ccn12

pIC50 (Abl): > 7.70 | pIC50 (Abl (T315I)): > 7.70 | pIC50 [1]: > 7.00
SMILES: Cc1ccc(C(=O)Nc2ccc(CN3CCN(C)CC3)c(C(F)(F)F)c2)cc1C#Cc1nnc2cccnn12

pIC50 (Abl): > 7.70 | pIC50 (Abl (T315I)): > 7.70 | pIC50 [1]: > 7.00
SMILES: Cc1ccc(C(=O)Nc2ccc(CN3CCN(C)CC3)c(C(F)(F)F)c2)cc1C#Cc1nnc2cc(C(=O)O)cnn12

pIC50 (Abl): > 7.70 | pIC50 (Abl (T315I)): > 7.70 | pIC50 [1]: > 7.00
SMILES: Cc1ccc(C(=O)Nc2ccc(CN3CCN(C)CC3)c(C(F)(F)F)c2)cc1C#Cn1cnc2cc(C(=O)O)ccc21

pIC50 (Abl): > 7.70 | pIC50 (Abl (T315I)): > 7.70 | pIC50 [1]: > 7.00
SMILES: CN1CCN(Cc2ccc(NC(=O)c3ccc(F)c(C#Cc4nnc5ccccn45)c3)cc2C(F)(F)F)CC1

SMILES: Cc1nc(Nc2ncc(C(=O)Nc3c(C)cccc3Cl)s2)cc(N2CCN(CCO)CC2)n1 [dasatinib]
bioavailability [2]: 14-34%

pIC50 (Abl): > 7.70 | pIC50 (Abl (T315I)): > 7.70 | pIC50 [1]: > 7.00
SMILES: Cc1ccc(C(=O)Nc2ccc(CN3CCN(C)CC3)c(C(F)(F)F)c2)cc1C#Cc1nnc2ccccn12 [drawing 113]

SMILES: Cc1ccc(C(=O)Nc2ccc(CN3CCN(C)CC3)c(C(F)(F)F)c2)cc1C#Cc1nnc2ccccn12 [drawing 121]
% T/C [3]: <40%

SMILES: Cc1ccc(C(=O)Nc2ccc(CN3CCN(C)CC3)c(C(F)(F)F)c2)cc1C#Cc1nnc2cccc(Cl)n12 [drawing 122]
% T/C [3]: <40%

SMILES: Cc1ccc(C(=O)Nc2ccc(CN3CC[C@@H](N(C)C)C3)c(C(F)(F)F)c2)cc1C#Cn1cnc2ccccc21 [drawing 123]
% T/C [3]: <40%

SMILES: Cc1ccc(C(=O)Nc2ccc(CN3CC[C@@H](N(C)C)C3)c(C(F)(F)F)n2)cc1C#Cn1cnc2ccccc21 [drawing 124]
% T/C [3]: <40%

SMILES: Cc1ccc(C(=O)Nc2ccc(CN3CCN(C)CC3)c(C(F)(F)F)c2)cc1C#Cc1nnc2cc(F)ccn12 [drawing 125]
% T/C [3]: <40%

SMILES: Cc1ccc2nnc(C#Cc3cc(C(=O)Nc4ccc(CN5CCN(C)CC5)c(C(F)(F)F)c4)ccc3C)n2n1 [drawing 126]
% T/C [3]: <40%

SMILES: Cc1ccc(C(=O)Nc2ccc(CN3CCN(C)CC3)c(C(F)(F)F)c2)cc1C#Cc1nnc2ccccn12 [drawing 127]
% T/C (MV4-11 cells): <40%

SMILES: Cc1ccc(C(=O)Nc2ccc(CN3CCN(C)CC3)c(C(F)(F)F)c2)cc1C#Cc1nnc2cccc(Cl)n12 [drawing 128]
% T/C (MV4-11 cells): <40%

SMILES: Cc1ccc(C(=O)Nc2ccc(CN3CC[C@@H](N(C)C)C3)c(C(F)(F)F)c2)cc1C#Cn1cnc2ccccc21 [drawing 129]
% T/C (MV4-11 cells): <40%

SMILES: Cc1ccc(C(=O)Nc2ccc(CN3CC[C@@H](N(C)C)C3)c(C(F)(F)F)n2)cc1C#Cn1cnc2ccccc21 [drawing 130]
% T/C (MV4-11 cells): <40%

SMILES: Cc1ccc(C(=O)Nc2ccc(CN3CCN(C)CC3)c(C(F)(F)F)c2)cc1C#Cc1nnc2cc(F)ccn12 [drawing 131]
% T/C (MV4-11 cells): <40%

SMILES: Cc1ccc2nnc(C#Cc3cc(C(=O)Nc4ccc(CN5CCN(C)CC5)c(C(F)(F)F)c4)ccc3C)n2n1 [drawing 132]
% T/C (MV4-11 cells): <40%

SMILES: Cc1ccc(C(=O)Nc2ccc(CN3CCN(C)CC3)c(C(F)(F)F)c2)cc1C#Cc1nnc2ccccn12 [drawing 133]
% T/C (HCT116 cells): <40%

SMILES: Cc1ccc(C(=O)Nc2ccc(CN3CCN(C)CC3)c(C(F)(F)F)c2)cc1C#Cc1nnc2cccc(Cl)n12 [drawing 134]
% T/C (HCT116 cells): <40%

SMILES: Cc1ccc(C(=O)Nc2ccc(CN3CC[C@@H](N(C)C)C3)c(C(F)(F)F)c2)cc1C#Cn1cnc2ccccc21 [drawing 135]
% T/C (HCT116 cells): <40%

SMILES: Cc1ccc(C(=O)Nc2ccc(CN3CC[C@@H](N(C)C)C3)c(C(F)(F)F)n2)cc1C#Cn1cnc2ccccc21 [drawing 136]
% T/C (HCT116 cells): <40%

SMILES: Cc1ccc(C(=O)Nc2ccc(CN3CCN(C)CC3)c(C(F)(F)F)c2)cc1C#Cc1nnc2cc(F)ccn12 [drawing 137]
% T/C (HCT116 cells): <40%

SMILES: Cc1ccc2nnc(C#Cc3cc(C(=O)Nc4ccc(CN5CCN(C)CC5)c(C(F)(F)F)c4)ccc3C)n2n1 [drawing 138]
% T/C (HCT116 cells): <40%

SMILES: Cc1ccc(C(=O)Nc2ccc(CN3CCN(C)CC3)c(C(F)(F)F)c2)cc1C#Cc1nnc2ccccn12 [drawing 139]
% T/C (A549 cells): <40%

SMILES: Cc1ccc(C(=O)Nc2ccc(CN3CCN(C)CC3)c(C(F)(F)F)c2)cc1C#Cc1nnc2cccc(Cl)n12 [drawing 140]
% T/C (A549 cells): <40%

SMILES: Cc1ccc(C(=O)Nc2ccc(CN3CC[C@@H](N(C)C)C3)c(C(F)(F)F)c2)cc1C#Cn1cnc2ccccc21 [drawing 141]
% T/C (A549 cells): <40%

SMILES: Cc1ccc(C(=O)Nc2ccc(CN3CC[C@@H](N(C)C)C3)c(C(F)(F)F)n2)cc1C#Cn1cnc2ccccc21 [drawing 142]
% T/C (A549 cells): <40%

SMILES: Cc1ccc(C(=O)Nc2ccc(CN3CCN(C)CC3)c(C(F)(F)F)c2)cc1C#Cc1nnc2cc(F)ccn12 [drawing 143]
% T/C (A549 cells): <40%

SMILES: Cc1ccc2nnc(C#Cc3cc(C(=O)Nc4ccc(CN5CCN(C)CC5)c(C(F)(F)F)c4)ccc3C)n2n1 [drawing 144]
% T/C (A549 cells): <40%

SMILES: Cc1cn(-c2cc(NC(=O)c3ccc(C)c(Nc4nccc(-c5cccnc5)n4)c3)cc(C(F)(F)F)c2)cn1 [nilotinib]
bioavailability [2]: 30%

SMILES: Cc1ccc(C(=O)Nc2ccc(CN3CCN(C)CC3)c(C(F)(F)F)c2)cc1C#Cc1cnc2cccnn12 [ponatinib]
bioavailability [2]: 20%
